Common to all, as to test: fluorogenic AMC peptide hydrolysis
Holding throughout (type): biochemical

In assay [1] the test system is T1, 20S proteasome β5 subunit, chymotrypsin-like (ChT-L) activity.
T1 construct: gene PSMB5; native 20S proteasome purified from lymphoblastoid cells
The conditions noted are these: Suc-LLVY-AMC, 37 °C, 30 min, enzyme pretreated with compound.

Assay [2] has the same test system. The conditions noted are these: Suc-LLVY-AMC, 37 °C, 30 min, enzyme pretreated with compound; read-out: IC50 (μm)^aChT-L. An excerpt: fluorogenic AMC peptide hydrolysis on 20S proteasome β5 subunit, chymotrypsin-like (ChT-L) activity
Assay [3] deals with T2, 20S proteasome β2 subunit, trypsin-like (T-L) activity.
T2 construct: gene PSMB7; native 20S proteasome purified from lymphoblastoid cells
The conditions noted are these: Boc-LRR-AMC, 37 °C, 30 min, enzyme pretreated with compound. The source says: fluorogenic AMC peptide hydrolysis on 20S proteasome β2 subunit, trypsin-like (T-L) activity

Experimental findings from article PMC6445160, “Naphthoquinone amino acid derivatives, synthesis and biological activity as proteasome inhibitors” (Journal of Enzyme Inhibition and Medicinal Chemistry, 2017) are described below.

Read-outs that look alike come from different tables or passages of the source.

With “1-NaftCO-Asn-NH-cHx-NH-ClNafQ [compound 40]”, the IC50 (usually the concentration needed to halve the response being measured) in assay [1] is more than 100 µM.

“1-NaftCO-Leu-NH-cHx-NH-ClNafQ [compound 36]”: in assay [2], the IC50 was 59.3 ± 6.42 µM.

For the compound “1-NaftCO-Phe-NH-cHx-NH-ClNafQ [compound 44]”, the IC50 in assay [1] is more than 100 µM.

As to “1-NaftCO-Ser-NH-cHx-NH-ClNafQ [compound 48]”, the IC50 in assay [1] is more than 100 µM.

On to `Cc1c(O)cccc1C(=O)N[C@@H](CC(C)C)C(=O)NCCNC1=C(Cl)C(=O)c2ccccc2C1=O` [compound 1, HMB-Leu-NH-(CH2)2-NH-ClNafQ], for which the figures for the IC50 in assay [3] and in assay [2] were 77.4 ± 6.51 µM and more than 100 µM, respectively.

On to `CC(C)C[C@H](NC(=O)c1ccc([N+](=O)[O-])cc1)C(=O)NCCNC1=C(Cl)C(=O)c2ccccc2C1=O` [compound 2, NBz-Leu-NH-(CH2)2-NH-ClNafQ], for which the IC50 in assay [3] is 65.3 ± 5.91 µM; in assay [2] it was more than 100 µM.

With `CC(C)C[C@H](NC(=O)c1ccccc1)C(=O)NCCNC1=C(Cl)C(=O)c2ccccc2C1=O` [compound 3, Bz-Leu-NH-(CH2)2-NH-ClNafQ], the IC50 was 58.4 ± 5.13 µM in assay [3] and more than 100 µM in assay [2].

Turning to `CC(C)C[C@H](NC(=O)c1cccc2ccccc12)C(=O)NCCNC1=C(Cl)C(=O)c2ccccc2C1=O` [compound 4, 1-NaftCO-Leu-NH-(CH2)2-NH-ClNafQ], the figures for the IC50 in assay [3] and in assay [2] were 21.1 ± 1.85 µM and 0.82 ± 0.08 µM, respectively.

`Cc1c(O)cccc1C(=O)N[C@@H](CC(N)=O)C(=O)NCCNC1=C(Cl)C(=O)c2ccccc2C1=O` [compound 5, HMB-Asn-NH-(CH2)2-NH-ClNafQ]: the figures for the IC50 in assay [3] and in assay [2] were 68.4 ± 5.14 µM and 8.47 ± 0.75 µM, respectively.

With `NC(=O)C[C@H](NC(=O)c1ccc([N+](=O)[O-])cc1)C(=O)NCCNC1=C(Cl)C(=O)c2ccccc2C1=O` [compound 6, NBz-Asn-NH-(CH2)2-NH-ClNafQ], the figures for the concentration for half-maximal inhibition (IC50) in assay [3] and in assay [2] were 17.2 ± 1.09 µM and 0.92 ± 0.09 µM, respectively.

In the case of `NC(=O)C[C@H](NC(=O)c1ccccc1)C(=O)NCCNC1=C(Cl)C(=O)c2ccccc2C1=O` [compound 7, Bz-Asn-NH-(CH2)2-NH-ClNafQ], the figures for the IC50 in assay [3] and in assay [2] were 49.7 ± 3.87 µM and 7.99 ± 0.67 µM, respectively.

Consider `NC(=O)C[C@H](NC(=O)c1cccc2ccccc12)C(=O)NCCNC1=C(Cl)C(=O)c2ccccc2C1=O` [compound 8, 1-NaftCO-Asn-NH-(CH2)2-NH-ClNafQ], for which the values for the IC50 in assay [3] and in assay [2] were 35.2 ± 2.77 µM and 76.2 ± 6.82 µM, respectively.

With `Cc1c(O)cccc1C(=O)N[C@@H](Cc1ccccc1)C(=O)NCCNC1=C(Cl)C(=O)c2ccccc2C1=O` [compound 9, HMB-Phe-NH-(CH2)2-NH-ClNafQ], the IC50 in assay [3] is more than 100 µM; in assay [2] it was 0.85 ± 0.07 µM.

In the case of `O=C(N[C@@H](Cc1ccccc1)C(=O)NCCNC1=C(Cl)C(=O)c2ccccc2C1=O)c1ccc([N+](=O)[O-])cc1` [compound 10, NBz-Phe-NH-(CH2)2-NH-ClNafQ], the IC50 worked out at 35.4 ± 2.91 µM in assay [3] and 0.77 ± 0.06 µM in assay [2].

Regarding `O=C(N[C@@H](Cc1ccccc1)C(=O)NCCNC1=C(Cl)C(=O)c2ccccc2C1=O)c1ccccc1` [compound 11, Bz-Phe-NH-(CH2)2-NH-ClNafQ], the IC50 was determined as 53.2 ± 6.7 µM in assay [3] and 6.22 ± 0.48 µM in assay [2].

For the compound `O=C1C(Cl)=C(NCCNC(=O)[C@H](Cc2ccccc2)NC(=O)c2cccc3ccccc23)C(=O)c2ccccc21` [compound 12, 1-NaftCO-Phe-NH-(CH2)2-NH-ClNafQ], the IC50 in assay [3] amounted to 49.8 ± 3.97 µM; in assay [2], 9.14 ± 1.02 µM.

With `Cc1c(O)cccc1C(=O)N[C@@H](CO)C(=O)NCCNC1=C(Cl)C(=O)c2ccccc2C1=O` [compound 13, HMB-Ser-NH-(CH2)2-NH-ClNafQ], the IC50 in assay [3] and in assay [1] was more than 100 µM throughout.

On to `O=C(NC(CO)C(=O)NCCNC1=C(Cl)C(=O)c2ccccc2C1=O)c1ccc([N+](=O)[O-])cc1` (stereo not drawn) [compound 14, NBz-Ser-NH-(CH2)2-NH-ClNafQ], for which the half-inhibitory concentration (IC50) in assay [3] is 63.4 ± 7.01 µM; in assay [2], 83.5 ± 8.03 µM.

Take `O=C(N[C@@H](CO)C(=O)NCCNC1=C(Cl)C(=O)c2ccccc2C1=O)c1ccccc1` [compound 15, Bz-Ser-NH-(CH2)2-NH-ClNafQ]: the results for the IC50 in assay [3] and in assay [2] were 53.8 ± 4.88 µM and 24.1 ± 1.98 µM, respectively.

As for `O=C1C(Cl)=C(NCCNC(=O)[C@H](CO)NC(=O)c2cccc3ccccc23)C(=O)c2ccccc21` [compound 16, 1-NaftCO-Ser-NH-(CH2)2-NH-ClNafQ], the concentration for half-maximal inhibition (IC50) in assay [3] and in assay [1] was more than 100 µM throughout.

Regarding `Cc1c(O)cccc1C(=O)N[C@@H](CC(C)C)C(=O)NCCCCNC1=C(Cl)C(=O)c2ccccc2C1=O` [compound 17, HMB-Leu-NH-(CH2)4-NH-ClNafQ], the IC50 in assay [3] is more than 100 µM; in assay [2], 11.5 ± 1.02 µM.

Consider `CC(C)C[C@H](NC(=O)c1ccccc1)C(=O)NCCCCNC1=C(Cl)C(=O)c2ccccc2C1=O` [compound 19, Bz-Leu-NH-(CH2)4-NH-ClNafQ], for which, in assay [2], the IC50 was found to be 10.1 ± 0.7 µM.

For `CC(C)C[C@H](NC(=O)c1cccc2ccccc12)C(=O)NCCCCNC1=C(Cl)C(=O)c2ccccc2C1=O` [compound 20, 1-NaftCO-Leu-NH-(CH2)4-NH-ClNafQ], the IC50 in assay [2] was found to be 49.3 ± 5.02 µM.

On to `Cc1c(O)cccc1C(=O)N[C@@H](CC(N)=O)C(=O)NCCCCNC1=C(Cl)C(=O)c2ccccc2C1=O` [compound 21, HMB-Asn-NH-(CH2)4-NH-ClNafQ], for which the IC50 in assay [2] amounted to 65.4 ± 6.5 µM.

For the compound `NC(=O)CC(NC(=O)c1ccc([N+](=O)[O-])cc1)C(=O)NCCCCNC1=C(Cl)C(=O)c2ccccc2C1=O` (stereo not drawn) [compound 22, NBz-Asn-NH-(CH2)4-NH-ClNafQ], in assay [2], the IC50 was determined as 28.5 ± 3.05 µM.

Regarding `NC(=O)C[C@H](NC(=O)c1ccccc1)C(=O)NCCCCNC1=C(Cl)C(=O)c2ccccc2C1=O` [compound 23, Bz-Asn-NH-(CH2)4-NH-ClNafQ], in assay [2], the IC50 worked out at 24.2 ± 2.05 µM.

With `NC(=O)C[C@H](NC(=O)c1cccc2ccccc12)C(=O)NCCCCNC1=C(Cl)C(=O)c2ccccc2C1=O` [compound 24, 1-NaftCO-Asn-NH-(CH2)4-NH-ClNafQ], the half-inhibitory concentration (IC50) in assay [2] was determined as 78.3 ± 6.95 µM.

Take `Cc1c(O)cccc1C(=O)N[C@@H](Cc1ccccc1)C(=O)NCCCCNC1=C(Cl)C(=O)c2ccccc2C1=O` [compound 25, HMB-Phe-NH-(CH2)4-NH-ClNafQ]: the IC50 in assay [2] stood at 17.5 ± 1.07 µM.

As to `O=C(NC(Cc1ccccc1)C(=O)NCCCCNC1=C(Cl)C(=O)c2ccccc2C1=O)c1ccc([N+](=O)[O-])cc1` (stereo not drawn) [compound 26, NBz-Phe-NH-(CH2)4-NH-ClNafQ], the IC50 in assay [2] was found to be 9.1 ± 0.6 µM.

As for `O=C(N[C@@H](Cc1ccccc1)C(=O)NCCCCNC1=C(Cl)C(=O)c2ccccc2C1=O)c1ccccc1` [compound 27, Bz-Phe-NH-(CH2)4-NH-ClNafQ], in assay [2], the IC50 is 10.1 ± 0.7 µM.

`O=C1C(Cl)=C(NCCCCNC(=O)[C@H](Cc2ccccc2)NC(=O)c2cccc3ccccc23)C(=O)c2ccccc21` [compound 28, 1-NaftCO-Phe-NH-(CH2)4-NH-ClNafQ]: the IC50 came out at 79.7 ± 6.97 µM in assay [3] and 9.3 ± 1.02 µM in assay [2].

`Cc1c(O)cccc1C(=O)N[C@@H](CO)C(=O)NCCCCNC1=C(Cl)C(=O)c2ccccc2C1=O` [compound 29, HMB-Ser-NH-(CH2)4-NH-ClNafQ]: the 50% inhibitory concentration (IC50) in assay [3] was 80.2 ± 6.91 µM; in assay [2], 45.7 ± 2.59 µM.

On to `O=C(NC(CO)C(=O)NCCCCNC1=C(Cl)C(=O)c2ccccc2C1=O)c1ccc([N+](=O)[O-])cc1` (stereo not drawn) [compound 30, NBz-Ser-NH-(CH2)4-NH-ClNafQ], for which the IC50 in assay [3] was 83.3 ± 7.21 µM; in assay [2] it was 88.7 ± 8.03 µM.

Consider `O=C(N[C@@H](CO)C(=O)NCCCCNC1=C(Cl)C(=O)c2ccccc2C1=O)c1ccccc1` [compound 31, Bz-Ser-NH-(CH2)4-NH-ClNafQ], for which the IC50 in assay [2] stood at 84.1 ± 6.08 µM.

For `O=C1C(Cl)=C(NCCCCNC(=O)[C@H](CO)NC(=O)c2cccc3ccccc23)C(=O)c2ccccc21` [compound 32, 1-NaftCO-Ser-NH-(CH2)4-NH-ClNafQ], the IC50 in assay [3] is 60.8 ± 4.88 µM; in assay [2], more than 100 µM.

Take Bz-Asn-NH-cHx-NH-ClNafQ [compound 39]: the IC50 in assay [1] was more than 100 µM.

Consider Bz-Leu-NH-cHx-NH-ClNafQ [compound 35], for which the 50% inhibitory concentration (IC50) in assay [2] was 23.1 ± 1.7 µM.

Regarding Bz-Phe-NH-cHx-NH-ClNafQ [compound 43], in assay [2], the IC50 stood at 73.3 ± 3.9 µM.

On to Bz-Ser-NH-cHx-NH-ClNafQ [compound 47], for which the IC50 in assay [1] is more than 100 µM.

As for HMB-Asn-NH-cHx-NH-ClNafQ [compound 37], the IC50 in assay [1] is more than 100 µM.

Regarding HMB-Leu-NH-cHx-NH-ClNafQ [compound 33], the half-inhibitory concentration (IC50) in assay [1] is more than 100 µM.

HMB-Phe-NH-cHx-NH-ClNafQ [compound 41]: in assay [1], the IC50 was more than 100 µM.

HMB-Ser-NH-cHx-NH-ClNafQ [compound 45]: in assay [1], the IC50 was more than 100 µM.

As for NBz-Asn-NH-cHx-NH-ClNafQ [compound 38], in assay [1], the IC50 is more than 100 µM.

Consider “NBz-Leu-NH-(CH2)4-NH-ClNafQ [compound 18]”, for which the IC50 in assay [2] stood at 8.4 ± 0.72 µM.

Take NBz-Leu-NH-cHx-NH-ClNafQ [compound 34]: in assay [2], the IC50 is 42.1 ± 5.02 µM.

On to NBz-Phe-NH-cHx-NH-ClNafQ [compound 42], for which the IC50 in assay [2] stood at 82.1 ± 6.52 µM.

Regarding NBz-Ser-NH-cHx-NH-ClNafQ [compound 46], the half-inhibitory concentration (IC50) in assay [1] is more than 100 µM.
